Reference: ChEMBL document CHEMBL3243999, “Novel anxiolytic agents derived from alpha-amino-alpha-phenyl-o-tolyl-4H-triazoles and -imidazoles” (J Med Chem, 1978)

Legend:
Mus musculus [1] = experiment: Anticonvulsant activity in ip dosed CF-1 albino mouse assessed as antagonism of pentylenetetrazole-induced clonic convulsions; format: functional
Mus musculus [2] = experiment: Anticonvulsant activity in ip dosed CF-1 albino mouse assessed as antagonism of thiosemicarbazide-induced lethality; format: functional; details: CF-1, ip
Mus musculus [3] = experiment: Anxiolytic activity in ip dosed CF-1 albino mouse assessed as antagonism of electric shock-induced effect; format: functional; details: CF-1, ip
Brain [4] = experiment: Drug metabolism in mouse brain assessed as unchanged drug level at 20 mg/kg, ip after 20 mins by GC-MS analysis; format: ADME, organism-based; design: dose 20 mg/kg, route intraperitoneal; details: in vivo
Mus musculus [5] = experiment: Muscle relaxing activity in ip dosed CF-1 albino mouse assessed as depression of dish reflexes; format: functional
Mus musculus [6] = experiment: Anticonvulsant activity in ip dosed CF-1 albino mouse assessed as antagonism of nicotine-induced tonic extensor convulsions; format: functional
Mus musculus [7] = experiment: Drug metabolism in mouse silylated blood assessed as triazolobenzodiazepine metabolite formation at 30 mg/kg, ip after 30 mins by GC-MS analysis; format: ADME, organism-based; design: dose 30 mg/kg, route intraperitoneal; details: in vivo, 0.5 h
Brain [8] = experiment: Drug metabolism in mouse brain assessed as un-identified metabolite formation at 20 mg/kg, ip after 0.5 hrs by GLC-electron capture detection analysis; format: ADME, organism-based; design: dose 20 mg/kg, route intraperitoneal; details: in vivo
Brain [9] = experiment: Drug metabolism in Sprague-Dawley rat brain assessed as triazolam metabolite formation at 20 mg/kg, ip after 0.5 hrs by GLC-electron capture detection analysis; format: ADME, organism-based; design: dose 20 mg/kg, route intraperitoneal; details: in vivo
[10] = Retention time of the compound by GLC-electron capture detection analysis; format: physicochemical
Rattus norvegicus = experiment: Anticonvulsant activity in po dosed Sprague-Dawley rat assessed as antagonism of pentylenetetrazole-induced clonic convulsions; format: functional
Brain [11] = experiment: Drug metabolism in Sprague-Dawley rat brain assessed as unchanged drug level at 20 mg/kg, ip after 20 mins by GC-MS analysis; format: ADME, organism-based; design: dose 20 mg/kg, route intraperitoneal; details: in vivo
Mus musculus [12] = experiment: Anticonvulsant activity in ip dosed CF-1 albino mouse assessed as antagonism of nicotine-induced death; format: functional
Mus musculus [13] = experiment: Muscle relaxing activity in ip dosed CF-1 albino mouse by chimney test; format: functional
Mus musculus [14] = experiment: Sedative activity in ip dosed CF-1 albino mouse assessed as muscle relaxation by measuring depression of traction; format: functional
Mus musculus [15] = experiment: Anticonvulsant activity in po dosed CF-1 albino mouse assessed as antagonism of pentylenetetrazole-induced clonic convulsions; format: functional; details: CF-1, po
Brain [16] = experiment: Drug level in Sprague-Dawley rat brain treated with (5-chloro-2-(3,5-dimethyl-4H-1,2,4-triazol-4-yl)phenyl)(2-chlorophenyl)methanamine at 20 mg/kg, ip after 20 mins by GC-MS analysis; format: ADME, organism-based; design: dose 20 mg/kg, route intraperitoneal; details: in vivo
Brain [17] = experiment: Drug level in mouse brain treated with (5-chloro-2-(3,5-dimethyl-4H-1,2,4-triazol-4-yl)phenyl)(2-chlorophenyl)methanamine at 20 mg/kg, ip after 20 mins by GC-MS analysis; format: ADME, organism-based; design: dose 20 mg/kg, route intraperitoneal; details: in vivo
Brain [18] = experiment: Retention time of the compound in mouse brain treated with (5-chloro-2-(3,5-dimethyl-4H-1,2,4-triazol-4-yl)phenyl)(2-chlorophenyl)methanamine at 20 mg/kg, ip after 0.5 hrs by GLC-electron capture detection analysis; format: ADME, organism-based; design: dose 20 mg/kg, route intraperitoneal; details: in vivo
[19] = Mus musculus, CF-1, ip, read-out: ED50

SMILES | ED50 (Mus musculus [1]; [19]) | ED50 (Mus musculus [2]) | ED50 (Mus musculus [3]) | ED50 (Mus musculus [5]; [19]) | ED50 (Mus musculus [6]; [19]) | ED50 (Mus musculus [12]; [19]) | ED50 (Mus musculus [13]; [19]) | ED50 (Mus musculus [14]; [19]) | further results
Cc1nnc(C)n1-c1ccc(Cl)cc1C(N)c1ccccc1 (stereo unspecified) | 16 mg/kg |  |  |  |  |  |  |  | 
Cc1nnc(C)n1-c1ccc(Cl)cc1C(N)c1ccccc1Cl (stereo unspecified) | 1.2 mg/kg | 0.4 mg/kg | > 100 mg/kg | 3.2 mg/kg | 0.5 mg/kg | 0.5 mg/kg | 6.3 mg/kg | > 100 mg/kg | Drug metabolism (Brain [4]): 65 ng; Drug metabolism (Mus musculus [7]): metabolite_detected; Drug metabolism (Brain [8]): metabolite_detected; Drug metabolism (Brain [9]): metabolite_notdetected; Retention_time [10]: 9 min; ED50 (Rattus norvegicus): > 50 mg/kg; Drug metabolism (Brain [11]): 272 ng
CC(C)=NC(c1ccccc1Cl)c1cc(Cl)ccc1-n1c(C)nnc1C (stereo unspecified) | 1.2 mg/kg | 0.34 mg/kg |  | 6.6 mg/kg | 0.75 mg/kg | 0.85 mg/kg | 6 mg/kg | > 30 mg/kg | 
Cc1nnc(CN(C)C)n1-c1ccc(Cl)cc1C(N)c1ccccc1Cl (stereo unspecified) | 0.2 mg/kg | 0.09 mg/kg | 40 mg/kg | 0.56 mg/kg | 0.25 mg/kg | 0.18 mg/kg | 0.71 mg/kg | 1.4 mg/kg | ED50 (Mus musculus [15]): 0.6 mg/kg; ED50 (Rattus norvegicus): 4.4 mg/kg
CN/N=C/c1nnc(C)n1-c1ccc(Cl)cc1C(N)c1ccccc1Cl (stereo unspecified) | 1.2 mg/kg |  | > 100 mg/kg | 0.4 mg/kg | 1.3 mg/kg | 1.4 mg/kg | 7 mg/kg | 20 mg/kg | 
Cc1cn(-c2ccc(Cl)cc2C(N)c2ccccc2Cl)c(C)n1 (stereo unspecified) |  | 1.8 mg/kg | > 100 mg/kg | 20 mg/kg | 3.6 mg/kg | 3.6 mg/kg | > 100 mg/kg | > 100 mg/kg | 
Br.Cc1nccn1-c1ccc(Cl)cc1C(N)c1ccccc1 (stereo unspecified) |  |  |  | 16 mg/kg | 9 mg/kg | 9 mg/kg | 18 mg/kg | 32 mg/kg | 
Cc1nnc(CN)n1-c1ccc(Cl)cc1Cc1ccccc1 | 12.5 mg/kg |  |  | 14 mg/kg | 7 mg/kg | 6.2 mg/kg | 18 mg/kg | 25 mg/kg | 
Cc1nnc(CN(C)C)n1-c1ccc(Cl)cc1C(=O)c1ccccc1Cl | 0.28 mg/kg | 0.02 mg/kg | 50 mg/kg | 0.25 mg/kg | 0.14 mg/kg | 0.14 mg/kg |  | 3.2 mg/kg | 
Cc1nnc(/C=N/N(C)C)n1-c1ccc(Cl)cc1C(N)c1ccccc1Cl (single isomer, unassigned) |  |  |  |  |  |  |  |  | ED50 (Mus musculus [5]): 7.1 mg/kg; ED50 (Mus musculus [6]): 4 mg/kg; ED50 (Mus musculus [1]): 5.6 mg/kg; ED50 (Mus musculus [12]): 4 mg/kg; ED50 (Mus musculus [13]): 16 mg/kg; ED50 (Mus musculus [14]): 50 mg/kg
Cc1nnc(C2CC2)n1-c1ccc(Cl)cc1C(N)c1ccccc1Cl (single isomer, unassigned; isomer 1) | 40 mg/kg |  |  |  | 2.3 mg/kg | 2.3 mg/kg | 40 mg/kg | > 50 mg/kg | ED50 (Mus musculus [5]): 4.5 mg/kg
Cc1nnc(CO)n1-c1ccc(Cl)cc1C(N)c1ccccc1Cl (single isomer, unassigned; isomer 1) | 1.2 mg/kg |  |  |  | 0.4 mg/kg | 0.5 mg/kg | 0.63 mg/kg | 16 mg/kg | ED50 (Mus musculus [15]): 6.2 mg/kg; ED50 (Mus musculus [5]): 1.1 mg/kg; ED50 (Rattus norvegicus): > 50 mg/kg
Cc1nnc(/C=N/N(C)C)n1-c1ccc(Cl)cc1C(N)c1ccccc1Cl (single isomer, unassigned; isomer 1) | 8.9 mg/kg |  | > 100 mg/kg | 11.2 mg/kg | 5.6 mg/kg | 8 mg/kg | 22 mg/kg | 71 mg/kg | 
Cc1nnc(CO)n1-c1ccc(Cl)cc1C(N)c1ccccc1Cl (single isomer, unassigned; isomer 2) |  |  |  |  |  |  |  |  | ED50 (Mus musculus [5]): 3.5 mg/kg; ED50 (Mus musculus [6]): 0.3 mg/kg; ED50 (Mus musculus [1]): 1 mg/kg; ED50 (Mus musculus [12]): 0.3 mg/kg; ED50 (Mus musculus [13]): 0.5 mg/kg; ED50 (Mus musculus [14]): 8 mg/kg
Cc1nnc(C2CC2)n1-c1ccc(Cl)cc1C(N)c1ccccc1Cl (stereo in doubt; 21b) |  |  |  |  |  |  |  |  | ED50 (Mus musculus [5]): 40 mg/kg; ED50 (Mus musculus [6]): 2.8 mg/kg; ED50 (Mus musculus [1]): >50 mg/kg; ED50 (Mus musculus [12]): 2 mg/kg; ED50 (Mus musculus [13]): 56 mg/kg; ED50 (Mus musculus [14]): >100 mg/kg
Cc1nnc2n1-c1ccc(Cl)cc1C(c1ccccc1)=NC2 [ALPRAZOLAM] |  |  |  |  |  |  |  |  | Retention_time [10]: 12 min
CN1C(=O)CN=C(c2ccccc2)c2cc(Cl)ccc21 [DIAZEPAM] | 0.8 mg/kg | 0.2 mg/kg | 20 mg/kg | 0.31 mg/kg | 0.11 mg/kg | 0.11 mg/kg |  | 5 mg/kg | ED50 (Rattus norvegicus): 4.8 mg/kg
Cc1nnc2n1-c1ccc(Cl)cc1C(c1ccccc1Cl)=NC2 [TRIAZOLAM] | 0.04 mg/kg | 0.028 mg/kg | 23 mg/kg | 0.1 mg/kg | 0.04 mg/kg | 0.04 mg/kg | 0.056 mg/kg | 0.7 mg/kg | Drug metabolism (Brain [16]): 4 ng; Retention_time [10]: 15 min; ED50 (Rattus norvegicus): 0.18 mg/kg; Drug metabolism (Brain [17]): 190 ng; Retention_time (Brain [18]): 15 min
